Like-named read-outs stand apart in the source and are kept apart here. *1 amine or outer side, *2 acyl side, *3 side chain or, on linkers, in order; H or OH if unused. Where a SMILES comes first, the peptide text is derived from it. Bridges are numbered along the chain shown (N, C = ends). Roman numbers before positions name the chains, in order. [ ]: non-standard residue; d: D form. The star is where a group is joined. Hexanoyl(6-succinimido-3yl) = O=C1CC([*:1])C(=O)N1CCCCCC(=O)[*:2]; Dolaproine = CO[C@@H]([C@@H]1CCCN1)[C@@H](C)C(=O)O; Dil = CC[C@H](C)[C@H](NC)[C@@H](CC(=O)O)OC; γGlu = O=C(O)[C@H](CCC(=O)[*:2])N[*:1]; PABC = O=C(OCc1ccc(N[*:1])cc1)[*:2]; X2 = C[C@@H](N*)[C@@H](O)c1ccccc1; X1 = O=C(C1CCC(CN[*:1])CC1)[*:2]; Cit = NC(=O)NCCC[C@H](N)C(=O)O; NMeV = CN[C@H](C(=O)O)C(C)C; CO = O=C([*:1])[*:2]; Ahx = NCCCCCC(=O)O
Key:
[1] = system: heterotopic PC3flu tumors; test: Heterotopic PC3flu versus PC3pip tumor study; assay type: in vivo, mouse; conditions: 955 nmol/kg every 4 days, five doses, n = 5, p = 0.0493
Protocol: Male athymic nude mice were implanted subcutaneously with 1 × 10^6 of PC3pip cells 100 μL of matrigel. When tumor size reached approximately 100 mm^3 (tumor volume = Length × width^2/2), mice received drugs through tail vein injection every 4 days with a total of five doses. Mice were treated every 4 days with a total of five doses. Animals were weighed and tumor size measured every other day for 90 days. Cures were defined as no tumor present at end of the 90-day study. When tumors became too large or animals were moribund they were euthanized. Five mice were used in each group. […]
drugs through tail vein inject every 4 days with total of 5 injections as indicated by the red arrows.
Each group had 5 mice. Values are mean ± SD of 5 animals. The plots stopped when animals died during the experiments since values are represent as mean ± SD of 5 animals.
(nmol/kg) Tumor Growth (nmol/kg) Therapeutic Index *
*: Therapeutic index is defined by MTD/effective dose.
PC3flu tumors. Treatment were scheduled every 4 days with a total of five doses as indicated by the red arrow. Each group had 5 mice. For tumor growth curves and body weight curves, values are mean ± SD of 5 animals. The plots stopped when animals died during the experiments since values are represent as mean ± SD of 5 animals. (A) Tumor growth curves of mice treated with 955 nmol/kg of PSMA-1-VcMMAE. […]

[2] = In vitro cytotoxicity assay (CCK-8), PC3flu; assay type: cell-based, human; conditions: human, PC3flu cells
Protocol: Cells (1000/well) were seeded in 96-well culture plates the day before treatment.

CC[C@H](C)[C@@H]([C@@H](CC(=O)N1CCC[C@H]1[C@H](OC)[C@@H](C)C(=O)N[C@H](C)[C@@H](O)c1ccccc1)OC)N(C)C(=O)[C@@H](NC(=O)[C@H](C(C)C)N(C)C(=O)OCc1ccc(NC(=O)[C@H](CCCNC(N)=O)NC(=O)[C@@H](NC(=O)CCCCCN2C(=O)CC(SC[C@H](NC(=O)[C@@H](CCC(=O)O)NC(=O)[C@@H](CCC(=O)O)NC(=O)[C@@H](CCC(=O)O)NC(=O)CCCCCNC(=O)C3CCC(CNC(=O)CC[C@H](NC(=O)N[C@@H](CCC(=O)O)C(=O)O)C(=O)O)CC3)C(=O)NCCCCCC(=O)N[C@@H](CCCCN)C(N)=O)C2=O)C(C)C)cc1)C(C)C (stereo partly shown) [PSMA-1-VcMMAE] (I: {Glu-CO-γGlu}-[X1][Ahx][dE][dE][dE]C[Ahx]K-NH2 / II: V[Cit][PABC][NMeV]V[Dil][Dolaproine]-X2; linker I:6-II:N via Hexanoyl(6-succinimido-3yl))
inhibition of PC3pip versus PC3flu tumor growth (in words) [1]: significantly more effective at inhibiting PSMA-positive PC3pip tumor growth than PSMA-negative PC3flu tumor growth | EC50 at 72 h ([2]; 72 h, CCK-8, in the presence of 10 μM of PSMA-1, read-out: EC50, cytotoxicity to PC3flu cells + PSMA-1): 261 ± 5.6 nM | EC50 at 72 h ([2]; 72 h, CCK-8, in the presence of protease inhibitor E64 (50 μM given for the Cy5.5 conjugates), read-out: EC50, cytotoxicity to PC3flu cells + E64): 385 ± 5.3 nM | EC50 at 72 h ([2]; 72 h incubation, CCK-8, mean ± SD, read-out: EC50, cytotoxicity to PC3flu cells): 222 ± 2.8 nM
